Patent US20230136562A1, “SPIROUREA DERIVATIVES” (Idorsia Pharmaceuticals Ltd, priority 2020, published 2023)
Read-outs that look alike come from different tables or passages of the source.

System: primary neuronal cultures from embryonic rat brains
Assay: Rat oscillation assay (FLIPR, neuronal calcium oscillations)
Assay type: cell-based
How it was run: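 Cortical neurons from E18 Wistar rat embryos, cultured 8–10 days at high density, loaded with 1 μM Fluo-8 AM; calcium oscillations recorded by FLIPR once per second in Mg-free HBSS with 2 mM CaCl2, 20 mM HEPES, pH 7.4. Two acquisitions ("Acute", 500 sec, compound added at 250 sec; "20 min"), ± Kv7 blocker XE-991.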

[1] = AUC of fluorescence measured 20 min after compound addition, read-out: FLIPR: IC50 [nM] 20 min
[2] = Rattus norvegicus, Acute phase, ratio of AUC fluorescence before and after compound addition, read-out: FLIPR: IC50 [nM] acute
[3] = Acute phase, ratio of AUC fluorescence before and after compound addition, read-out: FLIPR: IC50 [nM] acute
[4] = Rattus norvegicus, 20 min, AUC of fluorescence measured 20 min after compound addition, read-out: FLIPR: IC50 [nM] 20 min

Row | SMILES | IC50 [1] [nM] | IC50 [2] [nM] | IC50 [3] [nM] | IC50 [4] [nM] | activity compared with the (R) enantiomer (assay not given)
1 | CC(Oc1cccc(C2(NC(=O)NC3CC4(CCC4)C3)CC2)c1)C(F)(F)F (single isomer, unassigned) [Example 169, 1-Spiro[3.3]hept-2-yl-3-{1-[3-(2,2,2-trifluoro-1-methyl-ethoxy)-phenyl]-cyclopropyl}-urea] | 20 | 42 |  |  | 
2 | CC(Oc1cccc(C2(NC(=O)NC3CC4(CCC4)C3)CC2)c1)C(F)(F)F (single isomer, unassigned) [Example 170, 1-Spiro[3.3]hept-2-yl-3-{1-[3-(2,2,2-trifluoro-1-methyl-ethoxy)-phenyl]-cyclopropyl}-urea] | 59 |  | 76 |  | 
3 | COCC(Oc1cc(CNC(=O)NC2CC3(CCC3)C2)ccn1)C(F)(F)F (single isomer, unassigned) [Example 171, 1-Spiro[3.3]hept-2-yl-3-[2-(2,2,2-trifluoro-1-methoxymethyl-ethoxy)-pyridin-4-ylmethyl]-urea] | 377 |  | 252 |  | 
4 | C[C@H](NC(=O)NC1CC2(CCC2)C1)c1cccc(OC(F)F)c1 (single isomer, unassigned) [Example 173] |  | 7 |  | 11 | 
5 | C[C@@H](NC(=O)NC1CC2(CCC2)C1)c1cccc(OC(F)F)c1 (single isomer, unassigned) [Example 174] |  | 2870 |  | 2490 | 
6 | C[C@H](NC(=O)NC1CC2(CCC2)C1)c1cccc(OCC(F)(F)F)c1 (single isomer, unassigned) [Example 176] |  | 2.9 |  | 4.3 | 
7 | O=C(NC1CC2(CCC2)C1)N[C@H](c1cccc(C(F)(F)F)c1)C(F)(F)F (single isomer, unassigned) [Example 178] |  | 16 |  | 11 | 
8 | O=C(NC1CC2(CCC2)C1)N[C@H](c1cccc(C(F)(F)F)c1)c1nc[nH]n1 (single isomer, unassigned) [Example 179] |  | 24 |  | 13 | 
9 | CC(Oc1nccc(CNC(=O)NC2CC3(CCC3)C2)n1)C(F)(F)F (single isomer, unassigned) [Example 180, 1-Spiro[3.3]hept-2-yl-3-[2-(-2,2,2-trifluoro-1-methyl-ethoxy)-pyrimidin-4-ylmethyl]-urea] | 78 |  | 62 |  | 
10 | CC(Oc1nccc(CNC(=O)NC2CC3(CCC3)C2)n1)C(F)(F)F (single isomer, unassigned) [Example 181, 1-Spiro[3.3]hept-2-yl-3-[2-(2,2,2-trifluoro-1-methyl-ethoxy)-pyrimidin-4-ylmethyl]-urea] | 564 |  | 404 |  | 
11 | C[C@@H](NC(=O)NC1CC2(CCC2)C1)c1cc(OCC(F)(F)F)ncn1 (single isomer, unassigned) [Example 183] |  | 1420 |  | 1990 | 
12 | O=C(NC1CC2(CCC2)C1)N[C@@H](CO)c1cccc(C(F)(F)F)c1 (single isomer, unassigned) [Example 184] |  | 8.8 |  | 5.7 | 
13 | O=C(NC1CC2(CCC2)C1)N[C@H](CO)c1cccc(C(F)(F)F)c1 (single isomer, unassigned) [Example 185] |  | 936 |  | 753 | 
14 | COC[C@H](NC(=O)NC1CC2(CCC2)C1)c1ccnc(OC(F)F)c1 (single isomer, unassigned) [Example 187] |  | 2.7 |  | 3.9 | 
15 | COC[C@H](NC(=O)NC1CC2(CC2)C1)c1ccnc(OCC(F)(F)F)c1 (single isomer, unassigned) [Example 188] |  | 5.3 |  | 5.6 | 
16 | C[C@H](NC(=O)NC1CC2(CC2)C1)c1ccnc(OC(F)F)c1 (single isomer, unassigned) [Example 189] |  | 221 |  | 196 | 
17 | C[C@H](NC(=O)NC1CC2(CCC2)C1)c1cc(C(F)(F)F)ccc1Br (single isomer, unassigned) [Example 190] |  | 286 |  | 200 | more active than the (R) enantiomer
18 | O=C(NCc1cccc(C(F)(F)F)c1)NC1CC2(C1)CC2(F)F (centres unmarked) [Example 3, 1-(1,1-Difluoro-spiro[2.3]hex-5-yl)-3-(3-trifluoromethyl-benzyl)-urea] |  | 122 |  | 186 | 
19 | O=C(NCc1cccc(C(F)(F)F)c1)NC1CC2(C1)CC(F)(F)C2 [Example 6, 1-(6,6-Difluoro-spiro[3.3]hept-2-yl)-3-(3-trifluoromethyl-benzyl)-urea] |  | 62 |  | 112 | 
20 | O=C(NC1CC2(CCC2)C1)NC1(c2cccc(OC(F)F)c2)CC1 [Example 7, 1-[1-(3-Difluoromethoxy-phenyl)-cyclopropyl]-3-spiro[3.3]hept-2-yl-urea] |  | 85 |  | 142 | 
21 | O=C(NCc1cccc(OC(F)(F)F)c1F)NC1CC2(CCC2)C1 [Example 8, 1-(2-Fluoro-3-trifluoromethoxy-benzyl)-3-spiro[3.3]hept-2-yl-urea] |  | 78 |  | 35 | 

Row | SMILES | IC50 [1] [nM] | IC50 [2] [nM] | IC50 [3] [nM] | IC50 [4] [nM] | activity compared with the (R) enantiomer (assay not given)
22 | O=C(NCc1cccc(C(F)(F)F)c1F)NC1CC2(CCC2)C1 [Example 12, 1-(2-Fluoro-3-trifluoromethyl-benzyl)-3-spiro[3.3]hept-2-yl-urea] |  | 36 |  | 55 | 
23 | O=C(NCc1cccc(OC(F)F)c1)NC1CC2(CCC2)C1 [Example 13, 1-(3-Difluoromethoxy-benzyl)-3-spiro[3.3]hept-2-yl-urea] |  | 88 |  | 133 | 
24 | O=C(NCc1cccc(OCC(F)(F)F)c1)NC1CC2(CCC2)C1 [Example 14, 1-Spiro[3.3]hept-2-yl-3-[3-(2,2,2-trifluoro-ethoxy)-benzyl]-urea] |  | 31 |  | 27 | 
25 | O=C(NCc1cccc(C(F)F)c1)NC1CC2(CCC2)C1 [Example 15, 1-(3-Difluoromethyl-benzyl)-3-spiro[3.3]hept-2-yl-urea] |  | 124 |  | 126 | 
26 | O=C(NCc1cc(C(F)(F)F)ccc1F)NC1CC2(CCC2)C1 [Example 16, 1-(2-Fluoro-5-trifluoromethyl-benzyl)-3-spiro[3.3]hept-2-yl-urea] |  | 224 |  | 196 | 
27 | O=C(NCc1ccc(F)c(C(F)(F)F)c1)NC1CC2(CCC2)C1 [Example 17, 1-(4-Fluoro-3-trifluoromethyl-benzyl)-3-spiro[3.3]hept-2-yl-urea] |  | 141 |  | 145 | 
28 | O=C(NCc1cc(F)cc(C(F)(F)F)c1)NC1CC2(CCC2)C1 [Example 18, 1-(3-Fluoro-5-trifluoromethyl-benzyl)-3-spiro[3.3]hept-2-yl-urea] |  | 109 |  | 65 | 
29 | COc1c(CNC(=O)NC2CC3(CCC3)C2)cccc1C(F)(F)F [Example 22, 1-(2-Methoxy-3-trifluoromethyl-benzyl)-3-spiro[3.3]hept-2-yl-urea] |  | 275 |  | 268 | 
30 | O=C(NCc1cccc(S(F)(F)(F)(F)F)c1)NC1CC2(CCC2)C1 [Example 35, 1-(3-(pentafluoro-λ^6-sulfaneyl)benzyl)-3-(spiro[3.3]heptan-2-yl)urea] |  | 22 |  | 24 | 
31 | O=C(NCc1cc(C(F)(F)F)ccc1O)NC1CC2(CCC2)C1 [Example 38, 1-(2-Hydroxy-5-trifluoromethyl-benzyl)-3-spiro[3.3]hept-2-yl-urea] |  | 627 |  | 330 | 
32 | O=C(NCc1cccc(OC(F)(F)F)c1)NC1CC2(CCC2)C1 [Example 41, 1-Spiro[3.3]hept-2-yl-3-(3-trifluoromethoxy-benzyl)-urea] |  | 44 |  | 25 | 
33 | O=C(NCc1cccc(S(=O)(=O)C(F)(F)F)c1)NC1CC2(CCC2)C1 [Example 42, 1-Spiro[3.3]hept-2-yl-3-(3-trifluoromethanesulfonyl-benzyl)-urea] |  | 27 |  | 22 | 
34 | O=C(NCc1cccc(COC(F)(F)F)c1)NC1CC2(CCC2)C1 [Example 43, 1-Spiro[3.3]hept-2-yl-3-(3-trifluoromethoxymethyl-benzyl)-urea] |  | 16 |  | 22 | 
35 | O=C(NC1CC2(CCC2)C1)NC1(c2cccc(C(F)(F)F)c2)COC1 [Example 44, 1-Spiro[3.3]hept-2-yl-3-[3-(3-trifluoromethyl-phenyl)-oxetan-3-yl]-urea] |  | 78 |  | 100 | 
36 | O=C(NCc1cccc2c1OC(F)(F)O2)NC1CC2(CCC2)C1 [Example 46, 1-(2,2-Difluoro-benzo[1,3]dioxol-4-ylmethyl)-3-spiro[3.3]hept-2-yl-urea] |  | 234 |  | 285 | 
37 | O=C(NC1CC2(CCC2)C1)NC1(c2ccnc(OCC(F)(F)F)c2)CCOCC1 [Example 49, 1-Spiro[3.3]hept-2-yl-3-{4-[2-(2,2,2-trifluoro-ethoxy)-pyridin-4-yl]-tetrahydro-pyran-4-yl}-urea] |  | 680 |  | 1530 | 
38 | O=C(NC1CC2(CCC2)C1)NC1(c2ccnc(OC(F)F)c2)CCC1 [Example 51, 1-[1-(2-Difluoromethoxy-pyridin-4-yl)-cyclobutyl]-3-spiro[3.3]hept-2-yl-urea] |  | 80 |  | 65 | 
39 | CC(C)(NC(=O)NC1CC2(CCC2)C1)c1ccnc(OC(F)F)c1 [Example 52, 1-[1-(2-Difluoromethoxy-pyridin-4-yl)-1-methyl-ethyl]-3-spiro[3.3]hept-2-yl-urea] |  | 72 |  | 143 | 
40 | O=C(NC1CC2(CCC2)C1)N1CCc2c(ccnc2OCC(F)(F)F)C1 [Example 53, 5-(2,2,2-Trifluoro-ethoxy)-3,4-dihydro-1H-[2,6]naphthyridine-2-carboxylic acid spiro[3.3]hept-2-ylamide] |  | 185 |  | 226 | 
41 | N#CC(NC(=O)NC1CC2(CCC2)C1)c1cccc(C(F)(F)F)c1 (centres unmarked) [Example 55, 1-[Cyano-(3-trifluoromethyl-phenyl)-methyl]-3-spiro[3.3]hept-2-yl-urea] |  | 67 |  | 48 | 
